# Source: patent US20080214666A1, “Products and Methods Related to Mono-Methyl Branched-Chain Fatty Acids” (The Regents of the University of Colorado, priority 2004, published 2008)
# “Also recorded” adds a separate entry of the source.
# Legend:
# elo-5(RNAi) worms [1] = experiment: GC analysis of FA composition in elo-5(RNAi) worms grown on supplemented plates; format: in vivo, Caenorhabditis elegans; settings: for elongation of the supplement to C17ISO: added as food supplements; for incorporation of the supplement into lipids and its elongation (GC): elo-5(RNAi) worms on supplemented plates
# Method: A mixed population of well-fed worms were washed off the plates with water, rinsed 3-4 times, and, after aspirating away water, were frozen at −80° C. Fatty Acid Methyl Esters and lipid extraction were performed as described (Miquel and Browse 1992). GC was performed on the HP6890N (Agilent) equipped with a DB-23 column (30 m×250 μm×0.25 μm) (Kniazeva, Sieber et al. 2003). Each experiment was repeated at least five times. Average values and standard deviations were then calculated for each of the compounds in the experiments.
# (§1) Ninety μl of the 4 mM solution of FA (Sigma) in 1% NP40 or 10% DMSO was dropped on the side of the bacterial lawn that contained either elo-5 dsRNA-producing plasmid or the control HT115 vector. Two synchronized young adults were plated and their progeny was scored 4 and 5 days later. Each experiment was performed in at least 30 replicates. For recovering elo-5(RNAi) worms from L1 arrest, wild type adults were placed on the elo-5(RNAi) plates. Four days later, their progeny was removed and eggs of the next generation were left on the plates. Hatched L1 were kept for two or four days before transferring as agar chunks to new elo-5(RNAi) plates. FA supplements were added to spots next to the chunks. Ten plates were prepared for each FA supplement. Control plates contained no supplements. […] Neither C15 nor C17 mmBCFA added to let-418(RNAi) plates modified the expected phenotype.
# elo-5(RNAi) worms [2] = experiment: Phenotype rescue of elo-5(RNAi) worms using FA supplements; format: in vivo, Caenorhabditis elegans; settings: for plates on which the supplement rescued the elo-5 RNAi defects: FA supplement (90 μl of 4 mM) on elo-5(RNAi) plates, progeny scored 4 and 5 days later, rescued/total plates; for rescue of mmBCFA deficiency: added as food supplements; for plates with partial rescue of the elo-5 RNAi defects: FA supplement on elo-5(RNAi) plates, partially rescued/total plates; for rescue of elo-5(RNAi) phenotype: animals grown on elo-5 RNAi plates with supplement or mmBCFA-producing bacteria
# Method: The RNAi feeding strain was E. coli HT115 transformed with either empty pPD129.36 vector (controls) or with dsRNA-producing constructs. Unless stated differently, wild type N2 Bristol animals were plated as synchronized adults.
# Ninety μl of the 4 mM solution of FA (Sigma) in 1% NP40 or 10% DMSO was dropped on the side of the bacterial lawn that contained either elo-5 dsRNA-producing plasmid or the control HT115 vector. Two synchronized young adults were plated and their progeny was scored 4 and 5 days later. Each experiment was performed in at least 30 replicates. For recovering elo-5(RNAi) worms from L1 arrest, wild type adults were placed on the elo-5(RNAi) plates. Four days later, their progeny was removed and eggs of the next generation were left on the plates. Hatched L1 were kept for two or four days before transferring as agar chunks to new elo-5(RNAi) plates. FA supplements were added to spots next to the chunks. Ten plates were prepared for each FA supplement. Control plates contained no supplements.
# elo-5(gk208) = experiment: Rescue, growth and maturation of the elo-5(gk208) mutant on supplemented plates; format: in vivo, C. elegans
# [3] = Elongation of exogenous short chain mmBCFA in cultured human cells; format: cell-based
# mouse C2C12 (myoblasts) = experiment: Elongation of exogenous short chain mmBCFA in cultured mouse cells; format: cell-based
# N2 = experiment: Growth and maturation of wild type N2 on supplemented plates; format: in vivo, C. elegans
# human cancer = settings: Yang, Liu et al. 2000; cited from earlier work
# [4] = tested on: elo-5(RNAi) L1-arrested worms; experiment: Recovery of elo-5(RNAi) worms from L1 arrest with FA supplements; format: in vivo, Caenorhabditis elegans
# Method: as §1
# lpd-1(RNAi) animals = experiment: Rescue of lpd-1(RNAi) feeding defects by supplement; format: in vivo, C. elegans; settings: supplement added to the plates
# [5] = tested on: mmBCFA deficient early L1 larvae; experiment: Feeding of mmBCFA deficient early L1 larvae on plates without bacteria; format: in vivo, C. elegans; settings: supplements on the plates without bacteria
smiles,measurement,setting,value
COC(=O)CCCCCCCCCC(C)C [C13ISO-methyl ester],elongation of the supplement to C17ISO,elo-5(RNAi) worms [1],can be efficiently elongated to C17ISO
CC(C)CCCCCCCCCC(=O)O [C13ISO],plates on which the supplement rescued the elo-5 RNAi defects,elo-5(RNAi) worms [2],0/30
same,rescue of mmBCFA deficiency,elo-5(RNAi) worms [2],rescue mmBCFA deficiency
same,egg laying and survival on the second day of adulthood,"elo-5(gk208); elo-5(gk208), 0.75 mM and 1 mM",fail to lay eggs and die a few days later
same,growth rate,"elo-5(gk208); elo-5(gk208), 0.75 mM and 1 mM",grow as fast as N2 without supplements
same,developmental stage on forth day after hatching,"elo-5(gk208); elo-5(gk208), 10 mM",remain at L4 or young adults stages
same,effect on growth and maturation,"elo-5(gk208); elo-5(gk208), 2.5-10 mM",slowing at the L4 stage accompanied by a delay in the adult maturation
same,brood size,"elo-5(gk208); elo-5(gk208), high concentrations (2.5-10 mM)",maintain wild type brood size
same,animals that reach adulthood and have viable progeny,elo-5(gk208); supplement concentration above 0.75 mM,100%
same,rescue from elo-5(gk208) phenotype,elo-5(gk208); supplement concentration range 0-0.5 mM,no rescue; also recorded: does not rescue
same,elongation into C15ISO and C17ISO in vitro,[3]; RIN-M5F (pancreatic beta cells),able to elongate
same,elongation into C15ISO and C17ISO in vitro,[3]; SY-5Y (neuroblastoma),able to elongate
same,elongation into C15ISO and C17ISO in vitro,mouse C2C12 (myoblasts),able to elongate
same,growth rate,"N2; N2, 0.75 mM and 1 mM",grow as fast as N2 without supplements
same,developmental stage on forth day after hatching,"N2; N2, 10 mM",remain at L4 or young adults stages
same,effect on growth and maturation,"N2; N2, 2.5-10 mM",slowing at the L4 stage accompanied by a delay in the adult maturation
same,brood size,"N2; N2, high concentrations (2.5-10 mM)",maintain wild type brood size
same,ability to modulate growth rate between L4 and adult stage,N2; dietary supplement,modulate growth rate between L4 and adult stage
"CC(C)CCCCCCCCCCCC(=O)O [C15ISO, 13-methyl myristic acid]",plates with partial rescue of the elo-5 RNAi defects,elo-5(RNAi) worms [2],23/38
same,rescue of mmBCFA deficiency,elo-5(RNAi) worms [2],rescue mmBCFA deficiency
same,rescue of elo-5(RNAi) phenotype,elo-5(RNAi) worms [2],partially rescued
same,incorporation of the supplement into lipids and its elongation (GC),elo-5(RNAi) worms [1],no accumulation of C15ISO or its elongation to C17ISO was detectable
same,effect on human cancer,human cancer,growth inhibitor of human cancer where it selectively induces apoptosis
COC(=O)CCCCCCCCCCCC(C)C [C15ISO-methyl ester],elongation of the supplement to C17ISO,elo-5(RNAi) worms [1],can be efficiently elongated to C17ISO
CCC(C)CCCCCCCCCCC(=O)O (stereo not shown) [C15anteISO],plates with partial rescue of the elo-5 RNAi defects,elo-5(RNAi) worms [2],20/28
"CCCCCCCCCCCCCCCC(=O)O [C16:0, palmitic acid, reference compound]",plates on which the supplement rescued the elo-5 RNAi defects,elo-5(RNAi) worms [2],0/30
"CCCCCC/C=C\CCCCCCCC(=O)O [C16:1 n7, reference compound]",plates on which the supplement rescued the elo-5 RNAi defects,elo-5(RNAi) worms [2],0/30
"CCCCCCCCCCCCCCCCC(=O)O [C17:0, reference compound]",plates on which the supplement rescued the elo-5 RNAi defects,elo-5(RNAi) worms [2],0/30
"CC(C)CCCCCCCCCCCCCC(=O)O [C17ISO, 15-methyl hexadecanoic acid]",plates on which the supplement rescued the elo-5 RNAi defects,elo-5(RNAi) worms [2],52/60
same,rescue of mmBCFA deficiency,elo-5(RNAi) worms [2],rescue mmBCFA deficiency
same,rescue of elo-5(RNAi) phenotype,elo-5(RNAi) worms [2],fully rescued
same,arrested L1 rescued to full growth and proliferation,[4]; four-day-old L1,~1%
same,arrested L1 rescued to full growth and proliferation,[4]; two day-arrested L1,about 50%
same,incorporation of the supplement into lipids and its elongation (GC),elo-5(RNAi) worms [1],significantly incorporated into lipids
same,growth of homozygous elo-5(gk208) on supplemented plates,elo-5(gk208); plates supplemented or seeded,grew normally; also recorded: grew without any obvious morphological defects
same,"rescue of lpd-1 RNAi feeding defects (slow growth, morphological abnormalities, egg-laying defects)",lpd-1(RNAi) animals,did not significantly rescue these defects
same,development of early L1 arrested larvae,[5],able to elongate and proceed to the mid-L1 stage
"CCC(C)CCCCCCCCCCCCC(=O)O (stereo not shown) [C17anteISO, 14-methyl hexadecanoic acid]",plates on which the supplement rescued the elo-5 RNAi defects,elo-5(RNAi) worms [2],58/60
same,rescue of elo-5(RNAi) phenotype,elo-5(RNAi) worms [2],fully rescued
same,arrested L1 rescued to full growth and proliferation,[4]; four-day-old L1,~1%
same,arrested L1 rescued to full growth and proliferation,[4]; two day-arrested L1,about 50%
same,incorporation of the supplement into lipids and its elongation (GC),elo-5(RNAi) worms [1],significantly incorporated into lipids
"CCCCC/C=C\C/C=C\C/C=C\CCCCC(=O)O [C18:3 n6, reference compound]",plates on which the supplement rescued the elo-5 RNAi defects,elo-5(RNAi) worms [2],0/30
"CC(C)CCCCCCCCCCCCCCC(=O)O [C18ISO, reference compound]",plates on which the supplement rescued the elo-5 RNAi defects,elo-5(RNAi) worms [2],0/30
"CC(C)CCCCCCCCCCCCCCCC(=O)O [C19ISO, reference compound]",plates on which the supplement rescued the elo-5 RNAi defects,elo-5(RNAi) worms [2],0/30
"CC(C)CCCC(C)CCCC(C)CCCC(C)CC(=O)O (stereo not shown) [phytanic acid, reference compound]",plates on which the supplement rescued the elo-5 RNAi defects,elo-5(RNAi) worms [2],0/30
